Patent US7683168B2, “Compositions of novel opioid compounds and method of use thereof” (priority 2005, dated 2010)

Legend:
δ opioid receptor = target: T1, δ opioid receptor (Rattus norvegicus, UniProt P33533); assay: radioligand binding, δ opioid receptor, rat brain membranes; settings: cell marked (rat), tritium-labeled Deltorphin II
T1 construct: tissue Pel-Freeze Biological Inc. (Rogers, Ark.); host or cells: rat whole brain

μ opioid receptor = target: T2, μ opioid receptor (Rattus norvegicus, UniProt P33535); assay: radioligand binding, μ opioid receptor, rat brain membranes; settings: cell marked (rat), tritium-labeled DAMGO
T2 construct: tissue Pel-Freeze Biological Inc. (Rogers, Ark.); host or cells: rat whole brain
T2 sequence (P33535 whole entry): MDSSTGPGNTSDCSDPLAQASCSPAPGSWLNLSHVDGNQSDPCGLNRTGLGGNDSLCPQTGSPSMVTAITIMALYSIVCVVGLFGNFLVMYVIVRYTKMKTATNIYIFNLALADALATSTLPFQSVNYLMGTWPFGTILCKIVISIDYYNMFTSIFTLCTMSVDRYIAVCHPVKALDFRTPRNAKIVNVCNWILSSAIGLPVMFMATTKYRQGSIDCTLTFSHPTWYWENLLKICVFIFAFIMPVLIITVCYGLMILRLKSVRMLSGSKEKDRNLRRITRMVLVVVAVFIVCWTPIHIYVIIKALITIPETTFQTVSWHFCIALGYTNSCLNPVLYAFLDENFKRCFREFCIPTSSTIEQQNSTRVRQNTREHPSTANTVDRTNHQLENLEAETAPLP

κ opioid receptor = target: T3, κ opioid receptor (Cavia porcellus, UniProt P41144); assay: radioligand binding, κ opioid receptor, guinea pig cerebellum; settings: tritium-labeled U69593
T3 construct: tissue Pel-Freeze Biological Inc. (Rogers, Ark.); host or cells: guinea pig cerebellum
T3 sequence (P41144 whole entry): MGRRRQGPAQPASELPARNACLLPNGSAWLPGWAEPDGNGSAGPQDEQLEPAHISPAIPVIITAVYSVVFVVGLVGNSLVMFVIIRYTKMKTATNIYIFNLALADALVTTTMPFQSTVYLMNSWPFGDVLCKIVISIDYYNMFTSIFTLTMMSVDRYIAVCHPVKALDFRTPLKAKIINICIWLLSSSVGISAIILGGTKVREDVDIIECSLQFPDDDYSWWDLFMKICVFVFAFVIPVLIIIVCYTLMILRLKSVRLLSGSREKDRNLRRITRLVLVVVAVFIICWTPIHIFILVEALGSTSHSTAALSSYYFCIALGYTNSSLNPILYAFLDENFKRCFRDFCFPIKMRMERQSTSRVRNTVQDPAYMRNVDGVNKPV

mouse vas deferens = assay: electrically stimulated mouse vas deferens (MVD) ED50; format: cell-based; settings: ED50, inhibition of electrically induced contractions
[1] = system: seizure-like convulsions in mice; assay: mouse seizure-like convulsions; format: in vivo
How it was run: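 Male CD-1 mice (Charles River, Raleigh, N.C.) of 20-25 g were dosed and watched for one hour to detect seizure-like convulsions mediated by central delta receptors. An event was counted when clonic or tonic/clonic muscle movements involved the whole body, usually followed by brief catalepsy, judged by no attempt to withdraw front paws from a bar 2-3 inches above the floor.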

guinea pig ileum = assay: electrically stimulated guinea pig ileum (GPI) ED50; format: cell-based; settings: Cavia porcellus; ED50, inhibition of electrically induced contractions
Procedure: Further the compounds of formula (1) were evaluated for in vitro opioid receptor activity in various receptor systems, including mouse vas deferens (Mouse Vas Deferens ED50), and guinea pig ileum (Guinea Pig Ileum ED50). The assay procedures used for such determinations of receptor activity are set out below.
Intact ileums (about 3 cm length) were removed from guinea pig and suspended with 1 g of tension in a bath chamber as described for the vasa deferentia. The ileums were stimulated with electrical square-wave pulses of 0.1-Hz, 1 msec pulse duration at supramaximal voltage.
The ED50 values were extrapolated from curves showing the dose concentration plotted against the response (J. A. H. Lord, A. A. Waterfield, J. Hughes, H. W. Kosterlitz, Nature 267, 495, (1977)).

[2] = system: tail-pinch antinociception in mice; settings: in vivo
human delta receptor = target: T4, human delta receptor (Homo sapiens, UniProt P41143); assay: radioligand binding, human delta receptor, HEK-293 cell membranes; settings: cell not marked (rat), species not given, read-out: δ
T4 construct: purchased Perkin Elmer, Boston, Mass; 6110549; host or cells: HEK-293 cells
T4 sequence (P41143 whole entry): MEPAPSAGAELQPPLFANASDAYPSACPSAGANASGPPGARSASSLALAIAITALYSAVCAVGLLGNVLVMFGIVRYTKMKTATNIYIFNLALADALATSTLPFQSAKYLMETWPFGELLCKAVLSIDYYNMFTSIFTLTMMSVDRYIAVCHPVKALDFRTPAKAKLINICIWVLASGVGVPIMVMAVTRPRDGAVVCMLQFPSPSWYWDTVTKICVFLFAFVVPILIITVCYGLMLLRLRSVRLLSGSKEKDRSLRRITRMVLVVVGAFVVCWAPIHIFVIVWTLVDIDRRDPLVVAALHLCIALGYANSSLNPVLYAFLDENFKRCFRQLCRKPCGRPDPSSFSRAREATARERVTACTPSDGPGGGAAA

human mu opioid receptor = target: T5, human mu opioid receptor (Homo sapiens, UniProt P35372); assay: radioligand binding, human mu opioid receptor, CHO cell membranes; settings: species not given, read-out: μ
T5 construct: purchased Perkin Elmer, Boston, Mass; 6110535; host or cells: CHO cells
T5 sequence (P35372 whole entry): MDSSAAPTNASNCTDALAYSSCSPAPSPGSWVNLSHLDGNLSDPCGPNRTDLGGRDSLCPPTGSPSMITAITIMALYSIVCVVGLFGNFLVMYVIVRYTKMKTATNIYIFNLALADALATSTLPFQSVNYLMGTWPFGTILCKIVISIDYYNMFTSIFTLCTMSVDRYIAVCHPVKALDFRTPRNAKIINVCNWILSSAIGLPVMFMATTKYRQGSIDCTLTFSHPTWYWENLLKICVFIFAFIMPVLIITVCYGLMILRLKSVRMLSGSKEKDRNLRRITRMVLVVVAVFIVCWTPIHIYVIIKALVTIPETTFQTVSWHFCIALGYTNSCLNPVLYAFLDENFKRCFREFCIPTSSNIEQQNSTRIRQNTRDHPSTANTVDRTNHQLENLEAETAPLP

T1 sequence (P33533 whole entry): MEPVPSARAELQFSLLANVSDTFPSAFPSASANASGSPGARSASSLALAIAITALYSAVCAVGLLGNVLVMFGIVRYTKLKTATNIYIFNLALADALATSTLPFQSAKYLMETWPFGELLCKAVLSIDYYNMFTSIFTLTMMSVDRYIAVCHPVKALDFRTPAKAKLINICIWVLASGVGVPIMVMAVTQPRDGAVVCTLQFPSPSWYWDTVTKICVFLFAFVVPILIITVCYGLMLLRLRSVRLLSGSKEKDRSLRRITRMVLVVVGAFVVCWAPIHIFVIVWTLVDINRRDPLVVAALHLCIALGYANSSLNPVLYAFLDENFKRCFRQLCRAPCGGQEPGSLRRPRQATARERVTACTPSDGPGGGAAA

| Structure (SMILES) | Ki (δ opioid receptor) | Ki (μ opioid receptor) | Ki (κ opioid receptor) | EC50 (mouse vas deferens) | Seiz. ([1]; 10 mg/kg IV) | Seiz. ([1]; 3 mg/kg IV) | EC50 (guinea pig ileum) | mouse TP % MPE ([2]; iv, 10 mg/kg) | Seiz. ([1]; 20 mg/kg IV) | Seiz. ([1]; 200 mg/kg PO) | Seiz. ([1]; 100 mg/kg SC) | Ki (human delta receptor) | Ki (human mu opioid receptor) | maximum time of response in tail-pinch assay ([2]; mouse) |
| --- | --- | --- | --- | --- | --- | --- | --- | --- | --- | --- | --- | --- | --- | --- |
| C=CCN1C[C@H](C)N(C(c2cccc(O)c2)c2cccc(C(=O)N3CCCNCC3)c2)C[C@H]1C (some centres unmarked) | 4.68 nM | 1.61 nM | 1.6 nM | 6.07 nM | 45% 10 mg/kg IV |  |  |  |  |  |  |  |  |  |
| C=CCN1C[C@H](C)N(C(c2cccc(O)c2)c2cccc(C(=O)N3CCCN(CC(=O)OCC)CC3)c2)C[C@H]1C (some centres unmarked) | 1.35 nM | 3.33 nM | 4.15 nM | 1.36 nM | 25% 10 mg/kg IV |  |  |  |  |  |  |  |  |  |
| C=CCN1C[C@H](C)N(C(c2cccc(O)c2)c2cccc(C(=O)N3CCCN(CC(=O)O)CC3)c2)C[C@H]1C (some centres unmarked) | 3.53 nM | 3.03 nM | 12.7 nM | 4.7 nM | 10% | 0% |  |  |  |  |  |  |  |  |
| C=CCN1C[C@H](C)N([C@@H](c2cccc(O)c2)c2cccc(C(=O)N3CCCN(CCC(=O)OCC)CC3)c2)C[C@H]1C | 0.57 nM | 0.55 nM | 1.09 nM | 5.58 nM | 30% 10 mg/kg IV |  | 112 nM |  |  |  |  |  |  |  |
| C=CCN1C[C@H](C)N([C@@H](c2cccc(O)c2)c2cccc(C(=O)N3CCCN(CCC(=O)O)CC3)c2)C[C@H]1C | 3.03 nM | 3.89 nM | 9.85 nM | 5.39 nM | 0% 10 mg/kg IV |  | 117 nM |  |  |  |  |  |  |  |
| CCOC(=O)CCN1CCCN(C(=O)c2cccc([C@H](c3cccc(O)c3)N3C[C@@H](C)N(Cc4ccccc4)C[C@@H]3C)c2)CC1 | 1.2 nM | 0.75 nM | 2.98 nM | 1.5 nM | 80% 10 mg/kg IV (42% MPE mouse TP) |  | 836 nM | 80% 10 mg/kg IV (42% MPE mouse TP) |  |  |  |  |  |  |
| C[C@@H]1CN([C@@H](c2cccc(O)c2)c2cccc(C(=O)N3CCCN(CCC(=O)O)CC3)c2)[C@@H](C)CN1Cc1ccccc1 | 4 nM | 3.9 nM | 3830 nM | 0.52 nM |  |  | 52.2 nM |  | 0% 200 mg/kg PO 0% 20 mg/kg IV | 0% 200 mg/kg PO 0% 20 mg/kg IV |  |  |  |  |
| C=CCN1C[C@H](C)N([C@@H](c2cccc(O)c2)c2cccc(C(=O)N3CCCN(CCCC(=O)OCC)CC3)c2)C[C@H]1C | 1.66 nM | 1.76 nM | 1.22 nM | 22.6 nM | 0% 10 mg/kg IV |  | 198 nM |  |  |  |  |  |  |  |
| C=CCN1C[C@H](C)N([C@@H](c2cccc(O)c2)c2cccc(C(=O)N3CCCN(CCCC(=O)O)CC3)c2)C[C@H]1C | 2.75 nM | 5.57 nM | 16.3 nM | 2.2 nM | 0% 10 mg/kg IV |  | 186 nM |  |  |  |  |  |  |  |
| C=CCN1C[C@H](C)N([C@@H](c2cccc(O)c2)c2cccc(C(=O)N3CCCN(CCCCC(=O)OCC)CC3)c2)C[C@H]1C | 2.9 nM | 1.25 nM | 0.6 nM | 43.7 nM | 0% 10 mg/kg IV |  | 231 nM |  |  |  |  |  |  |  |
| C=CCN1C[C@H](C)N([C@@H](c2cccc(O)c2)c2cccc(C(=O)N3CCCN(CCCCC(=O)O)CC3)c2)C[C@H]1C | 6.43 nM | 9 nM | 27.7 nM | 3.33 nM | 0% 10 mg/kg IV 0% 100 mg/kg SC |  |  |  |  |  | 0% 10 mg/kg IV 0% 100 mg/kg SC |  |  |  |
| C=CCN1C[C@H](C)N(C(c2ccc(C(=O)N3CCCN(CCCC(=O)OCC)CC3)cc2)c2cccc(O)c2)C[C@H]1C (some centres unmarked) | 1.9 nM | 2.6 nM | 1.2 nM | 1.44 nM | 0% 10 mg/kg IV |  | 526 nM |  |  |  |  |  |  |  |
| C=CCN1C[C@H](C)N(C(c2ccc(C(=O)N3CCCN(CCCC(=O)O)CC3)cc2)c2cccc(O)c2)C[C@H]1C (some centres unmarked) | 3.94 nM | 16.1 nM | 29.2 nM | 0.95 nM | 0% 10 mg/kg IV 0% 100 mg/kg SC |  | 439 nM |  |  |  | 0% 10 mg/kg IV 0% 100 mg/kg SC |  |  |  |
| C[C@@H]1CN([C@@H](c2cccc(O)c2)c2cccc(C(=O)N3CCN(CC(=O)O)CC3)c2)[C@@H](C)CN1Cc1ccccc1 [Example 69, (4-{3-[(R)-((2S,5R)-4-Benzyl-2,5-dimethyl-piperazin-1-yl)-(3-hydroxy-phenyl)-methyl]-benzoyl}-piperazin-1-yl)-acetic acid] |  |  |  | 0.48 nM | 0% 10 mg/kg IV |  | 47.8 nM |  |  |  |  | 0.54 nM | 1.36 nM |  |
| C=CCN1C[C@H](C)N([C@@H](c2cccc(O)c2)c2cccc(C(=O)N3CCN(CCCC(=O)O)CC3)c2)C[C@H]1C [Example 75] |  |  |  | 4.1 nM | 0% 10 mg/kg IV |  | 178 nM |  |  |  |  | 25.3 nM | 10.8 nM |  |
| C[C@@H]1CN([C@@H](c2cccc(O)c2)c2cccc(C(=O)N3CCN(CCCC(=O)O)CC3)c2)[C@@H](C)CN1Cc1ccccc1 [Example 80, 4-(4-{3-[(R)-((2S,5R)-4-Benzyl-2,5-dimethyl-piperazin-1-yl)-(3-hydroxy-phenyl)-methyl]-benzoyl}-piperazin-1-yl)-butyric acid] |  |  |  | 0.34 nM | 0% 10 mg/kg IV |  | 104 nM |  |  |  |  | 5.7 nM | 5.3 nM |  |
| C=CCN1C[C@H](C)N([C@@H](c2cccc(O)c2)c2cccc(C(=O)N3CCN(CCCCC(=O)O)CC3)c2)C[C@H]1C [Example 84, 5-(4-{3-[(R)-((2S,5R)-4-Allyl-2,5-dimethyl-piperazin-1-yl)-(3-hydroxy-phenyl)-methyl]-benzoyl}-piperazin-1-yl)-pentanoic acid] |  |  |  | 3.76 nM | 0% 10 mg/kg IV |  | 209 nM |  |  |  |  | 13.4 nM | 57.3 nM |  |
| C=CCN1C[C@H](C)N([C@@H](c2cccc(O)c2)c2cccc(C(=O)N3CCC(C(=O)OCC)CC3)c2)C[C@H]1C [Example 119, 1-{3-[(R)-((2S,5R)-4-Allyl-2,5-dimethylpiperazin-1-yl)-(3-hydroxy-phenyl)methyl]benzoyl}piperidine-4-carboxylic acid ethyl ester] |  |  |  | 1.96 nM | 80% 10 mg/kg IV |  | 86.3 nM |  |  |  |  | 2.95 nM | 0.54 nM |  |
| CCOC(=O)C1CCN(C(=O)c2cccc([C@H](c3cccc(O)c3)N3C[C@@H](C)N(Cc4ccccc4)C[C@@H]3C)c2)CC1 [Example 122, 1-{3-[(R)-((2S,5R)-4-Benzyl-2,5-dimethyl-piperazin-1-yl)-(3-hydroxy-phenyl)-methyl]-benzoyl}-piperidine-4-carboxylic acid ethyl ester] |  |  |  | 0.82 nM | 70% 10 mg/kg IV |  | 153 nM |  |  |  |  | 4.5 nM | 1.9 nM |  |
| CCOC(=O)C1CCN(C(=O)c2cccc([C@H](c3cccc(O)c3)N3C[C@@H](C)N(Cc4cccc(F)c4)C[C@@H]3C)c2)CC1 [Example 124, 1-{3-[(R)-[(2S,5R)-4-(3-Fluoro-benzyl)-2,5-dimethyl-piperazin-1-yl]-(3-hydroxy-phenyl)-methyl]-benzoyl}-piperidine-4-carboxylic acid ethyl ester] |  |  |  | 2.54 nM | 10% 10 mg/kg IV |  | 1680 nM |  |  |  |  | 28.6 nM | 3.5 nM |  |
| CCOC(=O)C1CCN(C(=O)c2cccc([C@H](c3cccc(O)c3)N3C[C@@H](C)N(CC4CC4)C[C@@H]3C)c2)CC1 [Example 126, 1-{3-[(R)-((1S,4R)-4-Cyclopropylmethyl-2,5-dimethyl-piperazin-1-yl)-(3-hydroxy-phenyl)-methyl]-benzoyl}-piperidine-4-carboxylic acid ethyl ester] |  |  |  | 8.64 nM | 10% 10 mg/kg IV |  | 3310 nM |  |  |  |  | 3.7 nM | 1.5 nM |  |
| C=CCN1C[C@H](C)N([C@@H](c2cccc(O)c2)c2cccc(C(=O)N3CCC(O)CC3)c2)C[C@H]1C [Example 134, {3-[(R)-((2S,5R)-4-Allyl-2,5-dimethyl-piperazin-1-yl)-(3-hydroxy-phenyl)-methyl]-phenyl}-(4-hydroxy-piperidin-1-yl)-methanone] |  |  |  | 5.44 nM | 0% 10 mg/kg IV |  | 46.7 nM |  |  |  |  | 0.36 nM | 1.1 nM |  |
| CN1CC[C@]23c4c5ccc(O)c4O[C@H]2[C@@H](O)C=C[C@H]3[C@H]1C5 [morphine, reference compound] |  |  |  |  |  |  |  |  |  |  |  |  |  | 20 s |
